Experimental findings from patent US11793787B2, “Methods and compositions for enhancing anti-tumor immunity by targeting steroidogenesis” (The Broad Institute, Inc., priority 2019, dated 2023) are described below.

“And” between values parts separate entries of the source, which are not always exact repeats. Identical values can stand only once. “Also recorded” adds a separate entry of the source.

Experiment [1] has as its system CD8+ T cells. The experiment in a line: RNA-Seq of naive CD8+ T cells cultured with Dex (GC), IL-27 or GC+IL-27 (Tables 1, 2A, 2B, 3, 5-8). Format: cell-based, mouse.
Experiment [2] concerns MC38-Ova dim colon carcinoma. The experiment in a line: Intra-tumoral corticosterone in LysMCre+ Cyp11a1fl/fl mice bearing MC38-Ova dim, tumor progression. The experiment is classed as in vivo, mouse. Conditions: intra-tumoral corticosterone 2.5 mg/kg, Days 5, 6, 7 and 9.
Method: Tumor experiments. Tumor size was measured in two dimensions by caliper and is expressed as the product of two perpendicular diameters. […] Mice were then monitored for tumor growth. […] In vivo and in vitro modulation of glucocorticoid synthesis. MC38-Ova^dim was implanted in wild type C57BL/6 mice and either Metyrapone (50 mg/kg; Fisher Scientific), Corticosterone (2.5 mg/kg) or vehicle control PBS (Gibco) was administered intra-tumorally on Day 5, 6, 7 and 9 post-tumor implantation.
Another experiment has as its system MC38-Ova tumor explants. The experiment in a line: MC38-Ova tumor explants cultured with Metyrapone, corticosterone ELISA. The experiment is classed as cell-based, mouse. Conditions: 24 hrs, Metyrapone 25 or 50 ng/ml. How it is done: (§1) In vivo and in vitro modulation of glucocorticoid synthesis. MC38-Ova^dim was implanted in wild type C57BL/6 mice and either Metyrapone (50 mg/kg; Fisher Scientific), Corticosterone (2.5 mg/kg) or vehicle control PBS (Gibco) was administered intra-tumorally on Day 5, 6, 7 and 9 post-tumor implantation. In some experiments, MC38-Ova^dim tumor explants or sorted lin^−CD45^+CD24^− cells were cultured in the presence or absence of Metyrapone (25 or 50 ng/ml) for 24 hrs. Supernatants were harvested and corticosterone measured by ELISA (Arbor Assays).

Experiment [3] relates to Lin-CD45+CD24- monocyte/macrophages from MC38-Ova tumors. Briefly: Tumor-associated monocyte/macrophages cultured with Metyrapone, corticosterone ELISA. The experiment is classed as cell-based, mouse. The following applies: 24 hrs culture ex vivo. The method, then:
as §1

Another experiment has as its system MC38-Ova colon carcinoma. The experiment in a line: Intra-tumoral Metyrapone in MC38-Ova tumor-bearing mice, tumor growth. Format: in vivo, mouse. Conditions: 50 mg/kg, Days 5, 6, 7 and 9. The text has this: Tumor cell lines used. MC38-Ova^dim was generously provided by Mark Smyth. B16F10 was purchased from ATCC. MC38 was generously provided by Carla Rothlin. MC38-Ova^dim-GFP was generated in Applicants lab as follows, HEK293T cells were transfected with pLenti PGK GFP Puro plasmid. The resulting Lentivirus was then used to infect Mc38Ova^dim cell line to generate a GFP expressing cell line. MC38-Ova^dim (0.5×10^6) or B16F10 (0.25×10^6) and MC38-Ova^dim-GFP (0.5×10^6) cells were implanted subcutaneously into the right flank of mice.
Tumor experiments. Tumor size was measured in two dimensions by caliper and is expressed as the product of two perpendicular diameters. In some experiments, mice were treated with anti-PD-1 (RMP1-14) ([…]) antibodies or control immunoglobulin (Rat IgG2a) i.p. on days 5, 8 and 11 post-tumor implantation. Mice were then monitored for tumor growth. […] Antibodies were administered bi-weekly for a total of 5 treatments (n=9-10).
In vivo and in vitro modulation of glucocorticoid synthesis. MC38-Ova^dim was implanted in wild type C57BL/6 mice and either Metyrapone (50 mg/kg; Fisher Scientific), Corticosterone (2.5 mg/kg) or vehicle control PBS (Gibco) was administered intra-tumorally on Day 5, 6, 7 and 9 post-tumor implantation. […] Supernatants were harvested and corticosterone measured by ELISA (Arbor Assays).

The test system of a further experiment is CD8+ TILs. Briefly: Flow cytometry of CD8+ TILs from Metyrapone-treated tumor-bearing mice. Format: in vivo, mouse. Conditions: intra-tumoral Metyrapone, early stage of tumor progression. How it is done:
as §1, with “Isolation of TILs. TILs were isolated by dissociating tumor tissue in the presence of collagenase D (2.5 mg/ml) for 20 minutes prior to centrifugation on a discontinuous Percoll gradient (GE Healthcare). Isolated cells were then used in various assays. Flow cytometry. […] Antigen specific […] […] In vivo” for “In vivo”, “or sorted lin^-CD45^+CD24^- cells were” for “or sorted lin^−CD45^+CD24^− cells were”

The subject of experiment [4] is CD8+ T cells. Briefly: Quantitative RT-PCR of Prdm1, Nfil3 and Tcf7 in GC, IL-27 or GC+IL-27 treated CD8+ T cells. The experiment is classed as cell-based, mouse. Conditions: qPCR. The method, then: Cell culture and treatment with glucocorticoid.
Quantitative PCR. Total RNA was extracted using RNeasy columns (Qiagen) or PicoPure™ RNA Isolation Kit (Thermo Fischer). Reverse transcription of mRNA was performed in a thermal cycler (Bio-Rad) using iScript cDNA Synthesis Kit (Bio-Rad) or SuperScript™ VILO™ cDNA Synthesis Kit (Thermo Fischer). qPCR was performed in the Vii7 Real-Time PCR system (Applied Biosystems) using the primers for Taqman gene expression (Applied Biosystems). Data were normalized to the expression of Actb.

[5] abbreviates: treated CD8+ T cells, three values per condition, listed as Dex.
Where [6] appears, read: treated CD8+ T cells, three values per condition.

With `C[C@@H]1C[C@H]2[C@@H]3CCC4=CC(=O)C=C[C@]4(C)[C@@]3(F)[C@@H](O)C[C@]2(C)[C@@]1(O)C(=O)CO` [dexamethasone], in the experiment with CD8+ T cells [1] (GC versus vehicle control, Table 8), the “number of GC-induced genes overlapping with the T cell dysfunction signature” value stood at 463. In the experiment with CD8+ T cells [1] (setting [5]), the 1124 expression levels is 156.6 and 224.35 and 191; the CD28 expression levels is 31.98 and 33.89 and 35.83; the Lilrb4 expression levels is 179.28 and 174.41 and 160.09; the Nupr1 expression levels is 11.81 and 14.26 and 21.7. Further, in the experiment with CD8+ T cells [1] (setting [5]), the Tcf7 expression levels was 9.54 and 8.42 and 8.72; the Tgfb3 expression levels is 8.53 and 5.51 and 5.9.

Regarding `C[C@]12C[C@H](O)[C@H]3[C@@H](CCC4=CC(=O)CC[C@@]43C)[C@@H]1CC[C@@H]2C(=O)CO` [corticosterone], the “control of tumor progression in LysMCre+ Cyp11a1fl/fl mice” value in experiment [2] is reported as “abrogated”.

Consider `CC(C)(C(=O)c1cccnc1)c1cccnc1` [Metyrapone], for which the “level of corticosterone in tumor explant supernatants” value in the experiment with MC38-Ova tumor explants is “reduced and less”. For the same molecule, the “corticosterone production by tumor-associated monocyte/macrophages” value in experiment [3] is on record as “dramatically reduced; also recorded: significantly inhibited”. Also, the tumor growth entry with MC38-Ova colon carcinoma was “dramatic tumor growth inhibition”. For the same molecule, the “functional properties of CD8+ TILs compared with loss of GR in CD8+ T cells” value in the experiment with CD8+ TILs was “resembled that of CD8^+ TILs from E8i-Cre^+ Nr3c1^fl/fl mice and LysM-Cre^+ Cyp11a1^fl/fl mice”; in the experiment on CD8+ TILs (listed as metyrapone) it was “phenocopies CD8 GR cKO”.

B1: IL-27: heterodimeric cytokine of the IL-12 family composed of EBI3 and IL-27p28 (protein, UniProt Q14213 21-229; Q8NEV9 29-243, looked up)
Interleukin-27 subunit beta: RKGPPAALTLPRVQCRASRYPIAVDCSWTLPPAPNSTSPVSFIATYRLGMAARGHSWPCLQQTPTSTSCTITDVQLFSMAPYVLNVTAVHPWGSSSSFVPFITEHIIKPDPPEGVRLSPLAERQLQVQWEPPGSWPFPEIFSLKYWIRYKRQGAARFHRVGPIEATSFILRAVRPRARYYVQVAAQDLTDYGELSDWSLPATATMSLGK
Interleukin-27 subunit alpha: FPRPPGRPQLSLQELRREFTVSLHLARKLLSEVRGQAHRFAESHLPGVNLYLLPLGEQLPDVSLTFQAWRRLSDPERLCFISTTLQPFHALLGGLGTQGRWTNMERMQLWAMRLDLRDLQRHLRFQVLAAGFNLPEEEEEEEEEEEEERKGLLPGALGSALQGPAQVSWPQLLSTYRLLHSLELVLSRAVRELLLLSKAGHSVWPLGFPTLSPQP
As for B1, in the experiment on CD8+ T cells [1] (setting [6]), the CD28 expression levels was 48.93 and 37.2 and 39.84; the Lilrb4 expression levels was 73.62 and 94.25 and 105.87; the Nupr1 expression levels was 11.93 and 21.86 and 19.79; the Tcf7 expression levels is 5.37 and 7.39 and 5.57. For the same molecule, the Tcf7 expression entry in the experiment with CD8+ T cells [4] is given as “dramatically reduced”.
